From patent US20240425500A1 (priority 2021, published 2024) come the findings set out here.

The test system of assay [1] is Plasmopara viticola. Description: whole plant or invertebrate. The format is in vivo. The settings on record: foliar, read-out: control of Plasmopara viticola compared to untreated control.
The test system of assay [2] is Phytophthora infestans. Description: whole plant or invertebrate. The format is in vivo. The settings on record: in Solanum lycopersicum, foliar, read-out: control of Phytophthora infestans compared to untreated control.
Assay [3] relates to Pythium ultimum. Description: Pythium ultimum / liquid culture (seedling damping off). Format: cell-based. To be noted: Globisporangium ultimum, liquid culture in PDB, 24 °C, 2-3 days after application, read-out: control of Pythium ultimum (inhibition of growth, photometric) compared to untreated control. The protocol: Pythium ultimum/Liquid Culture (Seedling Damping Off):
Mycelia fragments and oospores of a newly grown liquid culture of the fungus are directly mixed into nutrient broth (PDB potato dextrose broth). After placing a (DMSO) solution of test compound into a microtiter plate (96-well format), the nutrient broth containing the fungal mycelia/spore mixture is added. The test plates are incubated at 24° C. and the inhibition of growth is determined photometrically 2-3 days after application.

The structures appear in SMILES notation. Bounds are passed on as bounds.

For the compound `COC(=O)Nc1ccc(-c2cnc3c(C)cc(C(=O)N(C)c4ccc(Cl)cc4)cn23)cc1` [Compound 19, methyl N-[4-[6-[(4-chlorophenyl)-methyl-carbamoyl]-8-methyl-imidazo[1,2-a]pyridin-3-yl]phenyl]carbamate], the pest or weed control at 200 ppm in assay [1] and in assay [2] was at least 80% in each case. Also, the inhibition (in general, the percentage by which the read-out fell short of the control) at 20 ppm in assay [3] was at least 80%.

As for `COC(=O)Nc1ccc(-c2cnc3ccc(C(=O)N(C)c4ccc(C#N)cc4)cn23)cc1` [Compound 6, methyl N-[4-[6-[(4-cyanophenyl)-methyl-carbamoyl]imidazo[1,2-a]pyridin-3-yl]phenyl]carbamate], the pest or weed control at 200 ppm in assay [1] and in assay [2] was at least 80% throughout. Further, the inhibition at 20 ppm in assay [3] was at least 80%.

For the compound `COC(=O)Nc1ccc(-c2cnc3c(Cl)cc(C(=O)N(C)c4ccc(F)cc4)cn23)cn1` [Compound 85, methyl N-[5-[8-chloro-6-[(4-fluorophenyl)-methyl-carbamoyl]imidazo[1,2-a]pyridin-3-yl]-2-pyridyl]carbamate], the pest or weed control at 200 ppm in assay [1] and in assay [2] was at least 80% throughout. The inhibition at 20 ppm in assay [3] is at least 80%.

Take `COC(=O)Nc1ccc(-c2cnc3ccc(C(=O)N(C)c4ccc(F)cc4)cn23)cc1` [Compound 11, methyl N-[4-[6-[(4-fluorophenyl)-methyl-carbamoyl]imidazo[1,2-a]pyridin-3-yl]phenyl]carbamate]: the pest or weed control at 200 ppm in assay [1] and in assay [2] was at least 80% in each case. In addition, the inhibition at 20 ppm in assay [3] was at least 80%.

In the case of `COC(=O)Nc1ccc(-c2cnc3ccc(C(=O)N(c4ccc(F)cc4)C4CC4)cn23)cn1` [Compound 110, methyl N-[5-[6-[cyclopropyl-(4-fluorophenyl)carbamoyl]imidazo [1,2-a]pyridin-3-yl]-2-pyridyl]carbamate], the pest or weed control at 200 ppm in assay [1] and in assay [2] was at least 80% throughout. For the same compound, the inhibition at 20 ppm in assay [3] was at least 80%.

As to `CCN(C(=O)c1ccc2ncc(-c3ccc(NC(=O)OC)nc3)n2c1)c1ccc(F)c(C)c1` [Compound 116, methyl N-[5-[6-[ethyl-(4-fluoro-3-methyl-phenyl)carbamoyl]imidazo [1,2-a]pyridin-3-yl]-2-pyridyl]carbamate], the pest or weed control at 200 ppm in assay [1] and in assay [2] was at least 80% throughout. Moreover, the inhibition at 20 ppm in assay [3] is at least 80%.

For `CCC(=O)Nc1ccc(-c2cnc3ccc(C(=O)N(C)c4ccc(F)c(C)c4)cn23)cn1` [Compound 78, N-(4-fluoro-3-methyl-phenyl)-N-methyl-3-[6-(propanoylamino)-3-pyridyl]imidazo[1,2-a]pyridine-6-carboxamide], the pest or weed control at 200 ppm in assay [1] is at least 80%. For the same compound, in assay [3], the inhibition at 20 ppm is at least 80%.

Consider `COC(=O)Nc1ccc(-c2cnc3ccc(C(=O)N(C)c4cccc(C(F)F)c4)cn23)cn1` [Compound 57, methyl N-[5-[6-[[3-(difluoromethyl)phenyl]-methyl-carbamoyl]imidazo[1,2-a]pyridin-3-yl]-2-pyridyl]carbamate], for which the pest or weed control at 200 ppm in assay [1] and in assay [2] was at least 80% each time. In addition, in assay [3], the inhibition at 20 ppm was at least 80%.

Turning to `COC(=O)Nc1ccc(-c2cnc3c(C)cc(C(=O)N(C)c4ccc(F)c(F)c4)cn23)cn1` [Compound 174, methyl N-[5-[6-[(3,4-difluorophenyl)-methyl-carbamoyl]-8-methyl-imidazo[1,2-a]pyridin-3-yl]-2-pyridyl]carbamate], the pest or weed control at 200 ppm in assay [1] and in assay [2] was at least 80% throughout. Moreover, in assay [3], the inhibition at 20 ppm was at least 80%.

With `COCc1cc(C(=O)N(C)c2ccc(F)cc2)cn2c(-c3ccc(NC(=O)OC)nc3)cnc12` [Compound 172, methyl N-[5-[6-[(4-fluorophenyl)-methyl-carbamoyl]-8-(methoxymethyl)imidazo[1,2-a]pyridin-3-yl]-2-pyridyl]carbamate], the pest or weed control at 200 ppm in assay [1] and in assay [2] was at least 80% in each case. The inhibition at 20 ppm in assay [3] was at least 80%.

Consider `COC(=O)Nc1ccc(-c2cnc3c(C)cc(C(=O)N(C)c4ccc(F)c(Cl)c4)cn23)cn1` [Compound 171, methyl N-[5-[6-[(3-chloro-4-fluoro-phenyl)-methyl-carbamoyl]-8-methyl-imidazo[1,2-a]pyridin-3-yl]-2-pyridyl]carbamate], for which the pest or weed control at 200 ppm in assay [1] and in assay [2] was at least 80% throughout. For the same compound, the inhibition at 20 ppm in assay [3] was at least 80%.

Turning to `COC(=O)Nc1ccc(-c2cnc3ccc(C(=O)N(CC#N)c4ccc(Cl)c(OC)c4)cn23)cn1` [Compound 90, methyl N-[5-[6-[(4-chloro-3-methoxy-phenyl)-(cyanomethyl)carbamoyl]imidazo[1,2-a]pyridin-3-yl]-2-pyridyl]carbamate], the pest or weed control at 200 ppm in assay [1] and in assay [2] was at least 80% each time. Besides, the inhibition at 20 ppm in assay [3] is at least 80%.

Take `COC(=O)Nc1ccc(-c2cnc3c(Br)cc(C(=O)N(C)c4ccc(F)cc4)cn23)cn1` [Compound 98, methyl N-[5-[8-bromo-6-[(4-fluorophenyl)-methyl-carbamoyl]imidazo[1,2-a]pyridin-3-yl]-2-pyridyl]carbamate]: the pest or weed control at 200 ppm in assay [1] and in assay [2] was at least 80% in each case. For the same compound, the inhibition at 20 ppm in assay [3] is at least 80%.

For `COC(=O)Nc1ccc(-c2cnc3ccc(C(=O)N(C)c4ccnc(OC)c4)cn23)cc1` [Compound 26, methyl N-[4-[6-[(2-methoxy-4-pyridyl)-methyl-carbamoyl]imidazo[1,2-a]pyridin-3-yl]phenyl]carbamate], the pest or weed control at 200 ppm in assay [1] and in assay [2] was at least 80% each time. Besides, the inhibition at 20 ppm in assay [3] was at least 80%.

Take `COC(=O)Nc1ccc(-c2cnc3ccc(C(=S)N(C)c4ccc(F)cc4)cn23)cn1` [Compound 164, methyl N-[5-[6-[(4-fluorophenyl)-methyl-carbamothioyl]imidazo[1,2-a]pyridin-3-yl]-2-pyridyl]carbamate]: the pest or weed control at 200 ppm in assay [1] and in assay [2] was at least 80% throughout. Moreover, the inhibition at 20 ppm in assay [3] is at least 80%.

On to `COC(=O)Nc1ccc(-c2cnc3ccc(C(=O)N(C)c4cc(OC)cc(OC)c4)cn23)cn1` [Compound 58, methyl N-[5-[6-[(3,5-dimethoxyphenyl)-methyl-carbamoyl]imidazo[1,2-a]pyridin-3-yl]-2-pyridyl]carbamate], for which the pest or weed control at 200 ppm in assay [1] is at least 80%. Besides, in assay [3], the inhibition at 20 ppm was at least 80%.

Regarding `COCCN(C(=O)c1cc(C)c2ncc(-c3ccc(NC(=O)OC)nc3)n2c1)c1ccc(F)c(OC)c1` [Compound 177, methyl N-[5-[6-[(4-fluoro-3-methoxy-phenyl)-(2-methoxyethyl)carbamoyl]-8-methyl-imidazo[1,2-a]pyridin-3-yl]-2-pyridyl]carbamate], the pest or weed control at 200 ppm in assay [1] and in assay [2] was at least 80% each time.

For `COC(=O)Nc1ccc(-c2cnc3ccc(C(=O)N(C)c4ccccc4)cn23)cn1` [Compound 61, methyl N-[5-[6-[methyl(phenyl)carbamoyl]imidazo[1,2-a]pyridin-3-yl]-2-pyridyl]carbamate], the pest or weed control at 200 ppm in assay [1] is at least 80%. Besides, the inhibition at 20 ppm in assay [3] is at least 80%.

Regarding `COC(=O)Nc1ccc(-c2cnc3ccc(C(=O)N(C)c4ccc(C)cc4)cn23)cn1` [Compound 64, methyl N-[5-[6-[methyl (p-tolyl)carbamoyl]imidazo [1,2-a]pyridin-3-yl]-2-pyridyl]carbamate], the pest or weed control at 200 ppm in assay [1] was at least 80%. Further, in assay [3], the inhibition at 20 ppm was at least 80%.

As to `CCN(C(=O)c1ccc2ncc(-c3ccc(NC(=O)OC)nc3)n2c1)c1ccccc1` [Compound 137, methyl N-[5-[6-[ethyl(phenyl)carbamoyl]imidazo[1,2-a]pyridin-3-yl]-2-pyridyl]carbamate], in assay [1], the pest or weed control at 200 ppm was at least 80%. Further, in assay [3], the inhibition at 20 ppm was at least 80%.

In the case of `CC(=O)Nc1ccc(-c2cnc3ccc(C(=O)N(C)c4ccc(Cl)cc4)cn23)cc1` [Compound 1, 3-(4-acetamidophenyl)-N-(4-chlorophenyl)-N-methyl-imidazo[1,2-a]pyridine-6-carboxamide], in assay [1], the pest or weed control at 200 ppm was at least 80%. The inhibition at 20 ppm in assay [3] was at least 80%.

As for `COC(=O)Nc1ccc(-c2cnc3ccc(C(=O)N(C)c4cccc(OC(F)F)c4)cn23)cc1` [Compound 9, methyl N-[4-[6-[[3-(difluoromethoxy)phenyl]-methyl-carbamoyl]imidazo[1,2-a]pyridin-3-yl]phenyl]carbamate], in assay [1], the pest or weed control at 200 ppm was at least 80%. Further, in assay [3], the inhibition at 20 ppm was at least 80%.

Regarding `CCCN(C(=O)c1ccc2ncc(-c3ccc(NC(=O)OC)nc3)n2c1)c1ccc(Cl)c(C)c1` [Compound 126, methyl N-[5-[6-[(4-chloro-3-methyl-phenyl)-propyl-carbamoyl]imidazo[1,2-a]pyridin-3-yl]-2-pyridyl]carbamate], the pest or weed control at 200 ppm in assay [1] is at least 80%. Also, the inhibition at 20 ppm in assay [3] is at least 80%.

With `CCN(C(=O)c1ccc2ncc(-c3ccc(NC(=O)OC)nc3)n2c1)c1ccc(Cl)cc1` [Compound 129, methyl N-[5-[6-[(4-chlorophenyl)-ethyl-carbamoyl]imidazo[1,2-a]pyridin-3-yl]-2-pyridyl]carbamate], the pest or weed control at 200 ppm in assay [2] is at least 80%. Moreover, the inhibition at 20 ppm in assay [3] is at least 80%.

As for `COC(=O)Nc1ccc(-c2cnc3ccc(C(=O)N(c4ccc(F)cc4)C4CCC4)cn23)cn1` [Compound 109, methyl N-[5-[6-[cyclobutyl-(4-fluorophenyl)carbamoyl]imidazo [1,2-a]pyridin-3-yl]-2-pyridyl]carbamate], the pest or weed control at 200 ppm in assay [2] was at least 80%. For the same compound, the inhibition at 20 ppm in assay [3] is at least 80%.
